The values that follow come from US20250129104A1, “7H-PYRROLO[2,3-D]PYRIMIDINES AND PREPARATION AND USES THEREOF” (BioSplice Therapeutics, Inc., priority 2021, published 2025).

The target in the experiment is recombinant DYRK1A kinase (Homo sapiens (Human), UniProt Q13627). In words: DYRK1A kinase assay (Ser/Thr 18 peptide Z-lyte FRET assay). Type of experiment: biochemical. As to conditions: DYRK1A kinase activity; 15 μM ATP, 1 h room temperature; method text calls the value IC50. In outline:
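Recombinant human DYRK1A (0.25 μg/mL) with 15 μM ATP and 4 μM Ser/Thr 18 peptide, 1 h at room temperature with compound (11-point, 1:3, 10 μM top, duplicate). Z-lyte development 1 h, then coumarin/fluorescein FRET emission ratio converted to % phosphorylation; IC50 by non-linear regression.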
A word on the EC50: it is the concentration that produces a half-maximal response. As for `COc1nc(NC2CCOCC2)nc2[nH]cc(-c3ccn4nccc4c3)c12` [Compound 2217, 4-Methoxy-5-(pyrazolo[1,5-a]pyridin-5-yl)-N-(tetrahydro-2H-pyran-4-yl)-7H-pyrrolo[2,3-d]pyrimidin-2-amine], the EC50 is 2.2 nM.
Next, `CCOc1nc(N[C@H](C)C(F)(F)F)nc2[nH]cc(-c3ccn4nccc4c3)c12` [Compound 2218, (R)-4-Ethoxy-5-(pyrazolo[1,5-a]pyridin-5-yl)-N-(1,1,1-trifluoropropan-2-yl)-7H-pyrrolo[2,3-d]pyrimidin-2-amine]: 12.9 nM; `CCOc1nc(N[C@H]2CC[C@@H](O)CC2)nc2[nH]cc(-c3ccn4nccc4c3)c12` [Compound 2219, cis-4-((4-Ethoxy-5-(pyrazolo[1,5-a]pyridin-5-yl)-7H-pyrrolo[2,3-d]pyrimidin-2-yl)amino)cyclohexan-1-ol]: 3.5 nM.
Consider `CC(C)Oc1nc(N[C@H]2CC[C@@](C)(O)CC2)nc2[nH]cc(-c3ccn4nccc4c3)c12` [Compound 2220, cis-4-((4-Isopropoxy-5-(pyrazolo[1,5-a]pyridin-5-yl)-7H-pyrrolo[2,3-d]pyrimidin-2-yl)amino)-1-methylcyclohexan-1-ol], for which the half-maximal effective concentration (EC50) was found to be 66.1 nM.
Consider `FC(F)CO[C@H]1CC[C@@H](Nc2ncc3c(-c4ccn5nccc5n4)c[nH]c3n2)CC1` [Compound 2222, N-(cis-4-(2,2-Difluoroethoxy)cyclohexyl)-5-(pyrazolo[1,5-a]pyrimidin-5-yl)-7H-pyrrolo[2,3-d]pyrimidin-2-amine], for which the EC50 was 5.8 nM.
Take `COc1nc(NC2CCOCC2)nc2[nH]cc(-c3ccn4nccc4n3)c12` [Compound 2224, 4-Methoxy-5-(pyrazolo[1,5-a]pyrimidin-5-yl)-N-(tetrahydro-2H-pyran-4-yl)-7H-pyrrolo[2,3-d]pyrimidin-2-amine]: the EC50 stood at 10.7 nM.
For the compound `COCCO[C@H]1CC[C@@H](Nc2ncc3c(-c4ccc5ncccc5c4)c[nH]c3n2)CC1` [Compound 2226, N-(cis-4-(2-Methoxyethoxy)cyclohexyl)-5-(quinolin-6-yl)-7H-pyrrolo[2,3-d]pyrimidin-2-amine], the EC50 was 6.2 nM.
For the compound `COc1nc(NC2CCC(F)(F)CC2)nc2[nH]cc(-c3ccc4ncccc4c3)c12` [Compound 2227, N-(4,4-Difluorocyclohexyl)-4-methoxy-5-(quinolin-6-yl)-7H-pyrrolo[2,3-d]pyrimidin-2-amine], the EC50 came out at 175 nM.
Next, `C[C@]1(O)CC[C@@H](Nc2ncc3c(-c4ccc5nccnc5c4)c[nH]c3n2)CC1` [Compound 2228, cis-1-Methyl-4-((5-(quinoxalin-6-yl)-7H-pyrrolo[2,3-d]pyrimidin-2-yl)amino)cyclohexan-1-ol]: 2.6 nM; `OCCO[C@H]1CC[C@@H](Nc2ncc3c(-c4ccc5nccnc5c4)c[nH]c3n2)CC1` [Compound 2229, 2-((cis-4-((5-(Quinoxalin-6-yl)-7H-pyrrolo[2,3-d]pyrimidin-2-yl)amino)cyclohexyl)oxy)ethan-1-ol]: 2.6 nM.
Consider `COc1nc(NC2CCC(F)(F)CC2)nc2[nH]cc(-c3ccc4nccnc4c3)c12` [Compound 2230, N-(4,4-Difluorocyclohexyl)-4-methoxy-5-(quinoxalin-6-yl)-7H-pyrrolo[2,3-d]pyrimidin-2-amine], for which the half-maximal effective concentration (EC50) is 4.5 nM.
As for `COc1nc(N[C@H]2CC[C@@](C)(O)CC2)nc2[nH]cc(-c3ccc4nccnc4c3)c12` [Compound 2231, cis-4-((4-Methoxy-5-(quinoxalin-6-yl)-7H-pyrrolo[2,3-d]pyrimidin-2-yl)amino)-1-methylcyclohexan-1-ol], the EC50 worked out at 2.2 nM.
Consider `CCOc1nc(N[C@H]2CC[C@@H](O)CC2)nc2[nH]cc(-c3ccc4nccnc4c3)c12` [Compound 2232, cis-4-((4-Ethoxy-5-(quinoxalin-6-yl)-7H-pyrrolo[2,3-d]pyrimidin-2-yl)amino)cyclohexan-1-ol], for which the EC50 came to 1.3 nM.
Next, `COc1nc(N[C@H]2CC[C@@](C)(O)CC2)nc2[nH]cc(-c3ccc4nccn4c3)c12` [Compound 2233, cis-4-((5-(Imidazo[1,2-a]pyridin-6-yl)-4-methoxy-7H-pyrrolo[2,3-d]pyrimidin-2-yl)amino)-1-methylcyclohexan-1-ol]: 1.6 nM.
With `C[C@]1(O)CC[C@@H](Nc2ncc3c(-c4ccn5nccc5c4)c[nH]c3n2)CC1` [Compound 2234, cis-1-Methyl-4-((5-(pyrazolo[1,5-a]pyridin-5-yl)-7H-pyrrolo[2,3-d]pyrimidin-2-yl)amino)cyclohexan-1-ol], the half-maximal effective concentration (EC50) was 5.9 nM.
Consider `C[C@]1(O)CC[C@@H](Nc2ncc3c(-c4ccc5nccn5c4)c[nH]c3n2)CC1` [Compound 2235, cis-4-((5-(Imidazo[1,2-a]pyridin-6-yl)-7H-pyrrolo[2,3-d]pyrimidin-2-yl)amino)-1-methylcyclohexan-1-ol], for which the EC50 is 7.4 nM.
Next, `C[C@]1(O)CC[C@H](Nc2ncc3c(-c4ccc5nccn5c4)c[nH]c3n2)CC1` [Compound 2236, trans-4-((5-(Imidazo[1,2-a]pyridin-6-yl)-7H-pyrrolo[2,3-d]pyrimidin-2-yl)amino)-1-methylcyclohexan-1-ol]: 15 nM; `C[C@]1(O)CC[C@H](Nc2ncc3c(-c4cc(F)c5nccn5c4)c[nH]c3n2)CC1` [Compound 2237, trans-4-((5-(8-Fluoroimidazo[1,2-a]pyridin-6-yl)-7H-pyrrolo[2,3-d]pyrimidin-2-yl)amino)-1-methylcyclohexan-1-ol]: 7.9 nM.
As to `Cc1nc2ccc(-c3c[nH]c4nc(N[C@H]5CC[C@@](C)(O)CC5)ncc34)nc2n1CC(F)F` [Compound 2239, cis-4-((5-(3-(2,2-Difluoroethyl)-2-methyl-3H-imidazo[4,5-b]pyridin-5-yl)-7H-pyrrolo[2,3-d]pyrimidin-2-yl)amino)-1-methylcyclohexan-1-ol], the 50% effective concentration (EC50) was found to be 6.9 nM.
On to `COc1nc(NCC(C)(C)F)nc2[nH]cc(-c3ccc4nccn4c3)c12` [Compound 2240, N-(2-Fluoro-2-methylpropyl)-5-(imidazo[1,2-a]pyridin-6-yl)-4-methoxy-7H-pyrrolo[2,3-d]pyrimidin-2-amine], for which the half-maximal effective concentration (EC50) came out at 7.9 nM.
Next, `COc1nc(NC2CCC(F)(F)CC2)nc2[nH]cc(-c3ccc4nccn4c3)c12` [Compound 2241, N-(4,4-Difluorocyclohexyl)-5-(imidazo[1,2-a]pyridin-6-yl)-4-methoxy-7H-pyrrolo[2,3-d]pyrimidin-2-amine]: 26.9 nM.
Regarding `[2H]C([2H])([2H])O[C@H]1CC[C@@H](Nc2nc(OC)c3c(-c4ccc5nccn5c4)c[nH]c3n2)CC1` [Compound 2242, 5-(Imidazo[1,2-a]pyridin-6-yl)-4-methoxy-N-(cis-4-(methoxy-d3)cyclohexyl)-7H-pyrrolo[2,3-d]pyrimidin-2-amine], the half-maximal effective concentration (EC50) is 28.4 nM.
As to `COc1nc(N[C@H]2CC[C@H](OC(F)F)CC2)nc2[nH]cc(-c3ccc4nccn4c3)c12` [Compound 2245, N-(trans-4-(Difluoromethoxy)cyclohexyl)-5-(imidazo[1,2-a]pyridin-6-yl)-4-methoxy-7H-pyrrolo[2,3-d]pyrimidin-2-amine], the concentration giving a half-maximal response (EC50) is 29.6 nM.
Consider `COc1nc(N[C@H]2CC[C@@H](OC(F)(F)F)CC2)nc2[nH]cc(-c3ccc4nccn4c3)c12` [Compound 2246, 5-(Imidazo[1,2-a]pyridin-6-yl)-4-methoxy-N-(cis-4-(trifluoromethoxy)cyclohexyl)-7H-pyrrolo[2,3-d]pyrimidin-2-amine], for which the EC50 stood at 132 nM.
Consider `CCOc1nc(N[C@H]2CC[C@@](C)(O)CC2)nc2[nH]cc(-c3ccc4nccn4c3)c12` [Compound 2254, cis-4-((4-Ethoxy-5-(imidazo[1,2-a]pyridin-6-yl)-7H-pyrrolo[2,3-d]pyrimidin-2-yl)amino)-1-methylcyclohexan-1-ol], for which the concentration giving a half-maximal response (EC50) stood at 25.8 nM.
Next, `COc1nc(NCC(C)(C)F)nc2[nH]cc(-c3cc(F)c4nccn4c3)c12` [Compound 2255, N-(2-Fluoro-2-methylpropyl)-5-(8-fluoroimidazo[1,2-a]pyridin-6-yl)-4-methoxy-7H-pyrrolo[2,3-d]pyrimidin-2-amine]: 19 nM; `[2H]C([2H])([2H])O[C@H]1CC[C@@H](Nc2nc(OC)c3c(-c4cc(F)c5nccn5c4)c[nH]c3n2)CC1` [Compound 2256, 5-(8-Fluoroimidazo[1,2-a]pyridin-6-yl)-4-methoxy-N-(cis-4-(methoxy-d3)cyclohexyl)-7H-pyrrolo[2,3-d]pyrimidin-2-amine]: 15 nM.
Consider `COc1nc(N[C@H]2CC[C@@H](OC(F)F)CC2)nc2[nH]cc(-c3cc(F)c4nccn4c3)c12` [Compound 2258, N-(cis-4-(Difluoromethoxy)cyclohexyl)-5-(8-fluoroimidazo[1,2-a]pyridin-6-yl)-4-methoxy-7H-pyrrolo[2,3-d]pyrimidin-2-amine], for which the concentration giving a half-maximal response (EC50) is 193 nM.
For `COc1nc(N[C@H]2CC[C@@H](OC(F)(F)F)CC2)nc2[nH]cc(-c3cc(F)c4nccn4c3)c12` [Compound 2260, 5-(8-Fluoroimidazo[1,2-a]pyridin-6-yl)-4-methoxy-N-(cis-4-(trifluoromethoxy)cyclohexyl)-7H-pyrrolo[2,3-d]pyrimidin-2-amine], the EC50 amounted to 245 nM.
Consider `COc1nc(NC2CCC(F)(F)CC2)nc2[nH]cc(-c3cnc4nccn4c3)c12` [Compound 2268, N-(4,4-Difluorocyclohexyl)-5-(imidazo[1,2-a]pyrimidin-6-yl)-4-methoxy-7H-pyrrolo[2,3-d]pyrimidin-2-amine], for which the EC50 is 9.9 nM.
`COc1nc(NCC(C)(C)F)nc2[nH]cc(-c3cnc4nc(C)n(CC(F)F)c4c3)c12` [Compound 2269, 5-(1-(2,2-Difluoroethyl)-2-methyl-1H-imidazo[4,5-b]pyridin-6-yl)-N-(2-fluoro-2-methylpropyl)-4-methoxy-7H-pyrrolo[2,3-d]pyrimidin-2-amine]: the concentration giving a half-maximal response (EC50) was 77.2 nM.
